Measurements from ChEMBL document CHEMBL4609974, “Triazole derivatives and their antiplasmodial and antimalarial activities” (Eur J Med Chem, 2019).
Values after ≈ are worked out from the molar mass of the structure shown.

Legend:
Plasmodium falciparum [1] = experiment: Antimalarial activity against chloroquine-resistant Plasmodium falciparum K1; type: functional, organism-based
Plasmodium falciparum [2] = experiment: Antimalarial activity against chloroquine-sensitive Plasmodium falciparum D6; type: functional, organism-based
Plasmodium falciparum [3] = experiment: Antimalarial activity against chloroquine-resistant Plasmodium falciparum W2; type: functional, organism-based
Plasmodium falciparum [4] = experiment: Antimalarial activity against chloroquine-sensitive Plasmodium falciparum 3D7; type: functional, organism-based
PC-3 = experiment: Cytotoxicity against human PC3 cells assessed as reduction in cell viability; type: functional, cell-based
Plasmodium falciparum [5] = experiment: Antimalarial activity against chloroquine-resistant Plasmodium falciparum […]; type: functional, organism-based
Staphylococcus aureus = experiment: Antimicrobial activity against Staphylococcus aureus; type: functional
Enterococcus faecalis = experiment: Antimicrobial activity against Enterococcus faecalis; type: functional
MRC5 = experiment: Cytotoxicity against human MRC5 cells assessed as reduction in cell viability; type: functional
[6] = Selectivity index, ratio of CC50 for human MRC5 cells assessed as reduction in cell viability to MIC for chloroquine-resistant Plasmodium falciparum K1; type: toxicity; details: read-out: Selectivity Index
[7] = Selectivity index, ratio of CC50 for human MRC5 cells assessed as reduction in cell viability to MIC for […]; type: toxicity; details: read-out: Selectivity Index
Plasmodium falciparum [8] = experiment: Antimalarial activity against […] Plasmodium falciparum W2; type: functional, organism-based

Structure (SMILES) | IC50 (Plasmodium falciparum [1]) | IC50 (Plasmodium falciparum [3]) | also measured
Fc1ccc(-n2cc(CN(Cc3cn(-c4ccc(F)cc4)nn3)c3ccc4nc(-c5ccccc5)c(-c5ccccc5)nc4c3)nn2)cc1 | 9.76 to 3540 µM | – | –
OC1(c2cn(CCCNc3ccnc4cc(Cl)ccc34)nn2)CCCCC1 | – | 0.59 to 4.71 µM | IC50 (Plasmodium falciparum [2]): 0.59 to 4.71 µM
COc1ccc2cc3[n+](cc2c1OCc1cn(-c2ccc(S(=O)(=O)Nc4ccc(Cl)cc4)cc2)nn1)CCc1cc2c(cc1-3)OCO2 | – | – | IC50 (Plasmodium falciparum [4]): 0.142 to 28 µM; IC50 (PC-3): 0.142 µM
Fc1ccc(-c2nc3ccc(NCc4cn(-c5ccc(F)cc5)nn4)cc3nc2-c2ccc(F)cc2)cc1 | 7.1 to 153 µM | – | –
Cc1ccc(-n2cc(CNc3ccc4nc(-c5ccc(F)cc5)c(-c5ccc(F)cc5)nc4c3)nn2)cc1 | 7.1 to 153 µM | – | –
COc1ccc(NS(=O)(=O)c2ccc(-n3cc(COc4c(OC)ccc5cc6[n+](cc45)CCc4cc5c(cc4-6)OCO5)nn3)cc2)cc1 | – | – | IC50 (Plasmodium falciparum [4]): 0.142 to 28 µM
CC(=O)c1ccc(OCc2cn(CCNc3ccnc4cc(Cl)ccc34)nn2)cc1 | – | 0.9 to 11.5 µM | IC50 (Plasmodium falciparum [2]): 0.9 to 11.5 µM
FC(F)(F)c1cccc(-n2cc(CNc3ccc4nc(-c5ccccc5)c(-c5ccccc5)nc4c3)nn2)c1 | 7.1 to 153 µM | – | –
CC(C)c1ccc(OCc2cn(CCNc3ccnc4cc(Cl)ccc34)nn2)cc1 | – | 0.9 to 11.5 µM | IC50 (Plasmodium falciparum [2]): 0.9 to 11.5 µM
COc1ccc(OCc2cn(CCNc3ccnc4cc(Cl)ccc34)nn2)cc1 | – | 0.9 to 11.5 µM | IC50 (Plasmodium falciparum [2]): 0.9 to 11.5 µM
Cc1nnc(Cn2cc(C(=O)NNC(=S)Nc3ccccc3)c(=O)c3cc(F)c(Cl)cc32)n1N | – | – | IC50 (Plasmodium falciparum [5]): 3.91 µM
CC[C@H]1OC(=O)C[C@@H](O)[C@H](C)C(O[C@@H]2O[C@H](C)[C@@H](O)[C@H](N(C)C)[C@H]2O)C(CC=O)C[C@@H](C)C(=N\OCCCc2cn(-c3cnc4ccccc4c3)nn2)/C=C/C(C)=C/[C@@H]1CO[C@@H]1O[C@H](C)[C@@H](O)[C@@H](OC)[C@H]1OC (stereo partly specified) | 0.73 µg/mL | – | MIC (Staphylococcus aureus): 0.5 to 1 µg/mL (≈ 0.489 to 0.977 µM); MIC (Enterococcus faecalis): 0.5 to 1 µg/mL (≈ 0.489 to 0.977 µM); CC50 (MRC5): 43 µg/mL (≈ 42 µM); selectivity ratio [6]: 59; selectivity ratio [7]: 59
O=[N+]([O-])c1cccc(-n2cc(CN(Cc3cn(-c4cccc([N+](=O)[O-])c4)nn3)c3ccc4nc(-c5ccc(F)cc5)c(-c5ccc(F)cc5)nc4c3)nn2)c1 | 9.76 to 3540 µM | – | –
COc1cccc(-n2cc(CN(Cc3cn(-c4cccc(OC)c4)nn3)c3ccc4nc(-c5ccc(F)cc5)c(-c5ccc(F)cc5)nc4c3)nn2)c1 | 9.76 to 3540 µM | – | –
c1ccc(-c2nc3ccc(NCc4cn(-c5ccccc5)nn4)cc3nc2-c2ccccc2)cc1 | 7.1 to 153 µM | – | –
COc1cccc(-n2cc(CN(Cc3cn(-c4cccc(OC)c4)nn3)c3ccc4nc(-c5ccccc5)c(-c5ccccc5)nc4c3)nn2)c1 | 9.76 to 3540 µM | – | –
OC1(c2cn(CCNc3ccnc4cc(Cl)ccc34)nn2)CCCCC1 | – | 0.9 to 11.5 µM | IC50 (Plasmodium falciparum [2]): 0.9 to 11.5 µM
O=C(CSc1nnc(Cc2ccccc2)n1-c1ccc(Cl)cc1)N1CCc2ccccc21 | – | 48.8 µM | IC50 (Plasmodium falciparum [8]): 48.8 µM
O=C(CSc1nnc(Cc2ccccc2)n1-c1ccccc1)N1CCc2ccccc21 | – | 4.59 µM | IC50 (Plasmodium falciparum [8]): 4.59 µM
COc1cccc(-n2cc(CNc3ccc4nc(-c5ccccc5)c(-c5ccccc5)nc4c3)nn2)c1 | 7.1 to 153 µM | – | –
Clc1ccc(OCc2cn(CCNc3ccnc4cc(Cl)ccc34)nn2)cc1 | – | 0.9 to 11.5 µM | IC50 (Plasmodium falciparum [2]): 0.9 to 11.5 µM
Clc1ccc2c(NCCCn3cc(COc4ccc5ccccc5c4)nn3)ccnc2c1 | – | 0.59 to 4.71 µM | IC50 (Plasmodium falciparum [2]): 0.59 to 4.71 µM
O=[N+]([O-])c1cccc(-n2cc(CNc3ccc4nc(-c5ccc(F)cc5)c(-c5ccc(F)cc5)nc4c3)nn2)c1 | 7.1 to 153 µM | – | –
Fc1ccc(-c2nc3ccc(NCc4cn(-c5cccc(C(F)(F)F)c5)nn4)cc3nc2-c2ccc(F)cc2)cc1 | 7.1 to 153 µM | – | –
c1ccc(-c2nc3ccc(N(Cc4cn(-c5ccccc5)nn4)Cc4cn(-c5ccccc5)nn4)cc3nc2-c2ccccc2)cc1 | 9.76 to 3540 µM | – | –
Cc1cccc(OCc2cn(CCNc3ccnc4cc(Cl)ccc34)nn2)c1 | – | 0.9 to 11.5 µM | IC50 (Plasmodium falciparum [2]): 0.9 to 11.5 µM
Fc1ccc(-n2cc(CNc3ccc4nc(-c5ccccc5)c(-c5ccccc5)nc4c3)nn2)cc1 | 7.1 to 153 µM | – | –
Cc1ccc(-n2cc(CN(Cc3cn(-c4ccc(C)cc4)nn3)c3ccc4nc(-c5ccc(F)cc5)c(-c5ccc(F)cc5)nc4c3)nn2)cc1 | 9.76 to 3540 µM | – | –
Fc1ccc(-c2nc3ccc(N(Cc4cn(-c5ccccc5)nn4)Cc4cn(-c5ccccc5)nn4)cc3nc2-c2ccc(F)cc2)cc1 | 9.76 to 3540 µM | – | –
COc1cccc(-n2cc(CNc3ccc4nc(-c5ccc(F)cc5)c(-c5ccc(F)cc5)nc4c3)nn2)c1 | 7.1 to 153 µM | – | –
